Columns and labels:
Tau784 mice = experiment: Morris water maze test in Tau784 mice; type: in vivo, mouse; conditions: Tau784 mice aged 8-10 months; orally, one month; mixture of catechin 0.087 μg, chlorogenic acid 0.036 μg, rutin 0.123 μg, or catechin alone 0.087 μg; FIG. 24
Excerpt: The Tau784 mice are FTD models that express both three-repeat and four-repeat human tau at an adult age (with four-repeat human tau being dominantly expressed) due to the presence of a tau intron mutation (Non-Patent Literature 25: Umeda et al., Am. J. Pathol., (2013), 183[1]:211-25; and Non-Patent Literature 26: Umeda et al., Ann. Clin. Transl. Neurol., (2015), 2[3]:241-55).
To investigate the effect of mãmaki leaf hot water extract, the extract powder was suspended in water at concentrations of 3.33, 0.33, and 0.10 mg/mL by sonication. 300 μL of each suspension (containing 1,000, 100, and 30 μg of powder) was orally administered to male and female Tau784 mice five days a week (Monday to Friday) for one month. As a control, the same amount of water was administered to age-matched Tg and non-Tg littermates. For APP23, Huα-Syn (A53T), and C9-500 mice, a 0.33 mg/mL suspension (100 μg of powder/[…]) was orally administered to male and female mice for one month. […]
The spatial reference memory of each mouse was evaluated using the Morris water maze test (Non-Patent Literature 34: Kelley Bromley-Brits et al., J. Vis. Exp., (2011), 53e2920). […] Each mouse was placed in the pool and allowed to swim for 60 seconds, and the time taken to reach the platform was measured (referred to as escape latency). […]

[1] = test system: BDNF and nerve growth factor (NGF); conditions: oral administration; rat model of cerebral ischemia/reperfusion; Non-Patent Literature 20; cited from earlier work
[2] = test system: mouse models of AD and PD; conditions: oral administration, Non-Patent Literature 18, 19; cited from earlier work

Compound	memory (Morris water maze test) (Tau784 mice)	expression of BDNF and nerve growth factor (NGF) [1]	memory and motor function [2]
catechin	showed a weaker effect than the polyphenol mixture	–	–
O=C(/C=C/c1ccc(O)c(O)c1)O[C@@H]1C[C@](O)(C(=O)O)C[C@@H](O)[C@H]1O [Chlorogenic acid, 5-O-caffeoylquinic acid]	–	promote the expression of BDNF and nerve growth factor (NGF)	improves their memory and motor function
